Each block holds one molecule with its values, some of them ahead of it.
Tests used:
[1] = target: T1, B. subtilis class Ib RNR (NrdE with Mn(III)2-Y• NrdF) (Bacillus subtilis, UniProt P50620); test: spectrophotometric RNR activity assay, dATP titration; assay type: biochemical; settings: read-out: % activity remaining at 25 μM
T1 sequence (P50620 1-700): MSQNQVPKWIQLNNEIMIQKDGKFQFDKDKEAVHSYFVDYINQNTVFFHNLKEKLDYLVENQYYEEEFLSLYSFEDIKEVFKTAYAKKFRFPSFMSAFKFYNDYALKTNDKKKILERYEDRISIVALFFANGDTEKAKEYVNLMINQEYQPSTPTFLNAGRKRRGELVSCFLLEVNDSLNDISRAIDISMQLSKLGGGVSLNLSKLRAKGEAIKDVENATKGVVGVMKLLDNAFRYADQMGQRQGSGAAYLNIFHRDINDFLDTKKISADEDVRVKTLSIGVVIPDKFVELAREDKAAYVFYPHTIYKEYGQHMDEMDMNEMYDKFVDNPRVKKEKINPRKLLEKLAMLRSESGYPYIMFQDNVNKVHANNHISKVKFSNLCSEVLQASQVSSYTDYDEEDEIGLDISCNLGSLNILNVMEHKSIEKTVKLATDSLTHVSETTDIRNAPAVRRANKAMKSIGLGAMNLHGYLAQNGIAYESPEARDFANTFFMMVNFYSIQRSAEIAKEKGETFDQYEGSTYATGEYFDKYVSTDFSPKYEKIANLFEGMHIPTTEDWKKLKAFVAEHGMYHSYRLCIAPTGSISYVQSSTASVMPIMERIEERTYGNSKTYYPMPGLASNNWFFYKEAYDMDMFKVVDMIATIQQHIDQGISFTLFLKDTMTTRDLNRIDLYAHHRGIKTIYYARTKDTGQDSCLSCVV
T1 sequence (P50621 1-329 partner): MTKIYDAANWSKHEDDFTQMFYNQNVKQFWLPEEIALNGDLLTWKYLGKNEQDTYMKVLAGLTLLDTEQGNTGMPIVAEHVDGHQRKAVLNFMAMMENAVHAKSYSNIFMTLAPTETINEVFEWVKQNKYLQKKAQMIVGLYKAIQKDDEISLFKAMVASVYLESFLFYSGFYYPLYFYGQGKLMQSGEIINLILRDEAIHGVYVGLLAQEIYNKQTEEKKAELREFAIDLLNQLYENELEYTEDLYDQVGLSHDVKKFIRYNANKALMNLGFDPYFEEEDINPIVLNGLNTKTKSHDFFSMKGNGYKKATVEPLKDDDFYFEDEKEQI

[2] = target: T2, endogenous NrdEF (BsNrdEF) (Bacillus subtilis, UniProt P50620); test: HClO4 release and high-resolution LC/ESI-MS of copurified nucleotide; assay type: binding; settings: stoichiometry, not affinity; native copurified ligand; protein ~80% pure
T2 sequence (P50620 1-700): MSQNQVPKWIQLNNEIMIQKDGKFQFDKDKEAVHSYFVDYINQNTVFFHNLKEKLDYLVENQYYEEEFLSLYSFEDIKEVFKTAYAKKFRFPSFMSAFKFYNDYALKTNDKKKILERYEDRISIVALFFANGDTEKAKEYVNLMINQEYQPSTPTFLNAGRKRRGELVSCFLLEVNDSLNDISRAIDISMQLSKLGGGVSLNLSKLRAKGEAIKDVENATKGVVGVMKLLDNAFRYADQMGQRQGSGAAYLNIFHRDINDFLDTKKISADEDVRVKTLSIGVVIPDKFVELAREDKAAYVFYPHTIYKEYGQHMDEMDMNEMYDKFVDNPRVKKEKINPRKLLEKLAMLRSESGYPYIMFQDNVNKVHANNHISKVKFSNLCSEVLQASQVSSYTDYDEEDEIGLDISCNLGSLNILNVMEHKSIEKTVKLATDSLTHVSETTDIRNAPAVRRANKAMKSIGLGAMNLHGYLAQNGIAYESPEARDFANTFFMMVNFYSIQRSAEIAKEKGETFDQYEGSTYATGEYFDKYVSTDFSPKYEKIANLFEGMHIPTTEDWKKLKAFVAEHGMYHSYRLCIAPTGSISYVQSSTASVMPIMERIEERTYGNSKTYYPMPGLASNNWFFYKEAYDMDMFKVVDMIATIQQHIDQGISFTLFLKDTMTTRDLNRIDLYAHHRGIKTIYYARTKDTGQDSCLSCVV
T2 sequence (P50621 1-329 partner): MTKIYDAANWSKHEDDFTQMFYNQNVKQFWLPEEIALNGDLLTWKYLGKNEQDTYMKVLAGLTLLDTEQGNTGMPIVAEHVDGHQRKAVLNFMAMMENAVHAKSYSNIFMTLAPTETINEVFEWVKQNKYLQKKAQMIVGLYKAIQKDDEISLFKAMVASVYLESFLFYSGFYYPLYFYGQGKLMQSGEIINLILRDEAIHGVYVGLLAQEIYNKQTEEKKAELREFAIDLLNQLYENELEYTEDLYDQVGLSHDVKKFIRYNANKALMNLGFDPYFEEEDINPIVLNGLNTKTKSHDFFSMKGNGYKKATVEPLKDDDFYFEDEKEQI

[3] = target: T3, Bacillus subtilis NrdE isolated from B. subtilis as the NrdE⋅NrdF (NrdEF) complex (Bacillus subtilis, UniProt P50620 1-700); test: co-purification from B. subtilis
T3 sequence (looked up): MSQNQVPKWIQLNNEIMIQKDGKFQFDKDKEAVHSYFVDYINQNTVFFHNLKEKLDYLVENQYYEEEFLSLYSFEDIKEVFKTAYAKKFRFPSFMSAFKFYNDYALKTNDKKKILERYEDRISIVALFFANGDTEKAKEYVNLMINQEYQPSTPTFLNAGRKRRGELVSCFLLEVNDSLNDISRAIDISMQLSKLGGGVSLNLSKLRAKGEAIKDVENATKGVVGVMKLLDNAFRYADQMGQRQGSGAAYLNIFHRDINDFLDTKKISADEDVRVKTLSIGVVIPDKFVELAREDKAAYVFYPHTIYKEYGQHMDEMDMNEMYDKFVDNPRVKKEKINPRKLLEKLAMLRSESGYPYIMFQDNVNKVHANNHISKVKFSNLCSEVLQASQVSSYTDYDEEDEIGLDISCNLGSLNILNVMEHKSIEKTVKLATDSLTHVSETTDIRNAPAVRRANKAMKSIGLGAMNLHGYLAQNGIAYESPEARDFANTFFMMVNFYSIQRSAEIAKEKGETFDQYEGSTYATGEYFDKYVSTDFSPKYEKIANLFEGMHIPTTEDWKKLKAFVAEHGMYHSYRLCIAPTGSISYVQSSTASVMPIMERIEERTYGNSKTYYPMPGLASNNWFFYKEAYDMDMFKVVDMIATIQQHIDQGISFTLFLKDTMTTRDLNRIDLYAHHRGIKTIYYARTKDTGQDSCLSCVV

remaining activity at 25 µM [1]: ~15%
Molecule: Nc1ncnc2c1ncn2[C@H]1C[C@H](O)[C@@H](COP(=O)(O)OP(=O)(O)OP(=O)(O)O)O1 [dATP]

dAMP/α [2]: 0.3 per α
Molecule: Nc1ncnc2c1ncn2[C@H]1C[C@H](O)[C@@H](COP(=O)(O)O)O1 [dAMP]

stoichiometry N [3]: ~1
B1: Bacillus subtilis NrdF (Mn-loaded) isolated from B. subtilis as the NrdE⋅NrdF (NrdEF) complex (enzyme, UniProt P50621 1-329, looked up)
chain: MTKIYDAANWSKHEDDFTQMFYNQNVKQFWLPEEIALNGDLLTWKYLGKNEQDTYMKVLAGLTLLDTEQGNTGMPIVAEHVDGHQRKAVLNFMAMMENAVHAKSYSNIFMTLAPTETINEVFEWVKQNKYLQKKAQMIVGLYKAIQKDDEISLFKAMVASVYLESFLFYSGFYYPLYFYGQGKLMQSGEIINLILRDEAIHGVYVGLLAQEIYNKQTEEKKAELREFAIDLLNQLYENELEYTEDLYDQVGLSHDVKKFIRYNANKALMNLGFDPYFEEEDINPIVLNGLNTKTKSHDFFSMKGNGYKKATVEPLKDDDFYFEDEKEQI

— paper PMC5960316 (Proceedings of the National Academy of Sciences of the …, 2018)
